Test results as given in US4992455A, “Thiazolidin-4-one derivatives useful for treating diseases caused by platelet activating factor” (Sumitomo Pharmaceuticals Company, Limited, priority 1987, dated 1991).
In brackets after ≈: the same amount, converted by molar mass.

Columns and labels:
[1] = tested on: PAF-induced rabbit platelet aggregation; test: Inhibition of PAF-induced rabbit platelet aggregation (in vitro, platelet-rich plasma); format: cell-based; conditions: Oryctolagus cuniculus, rabbit PRP, 37° C., final PAF concentration 0.005 μ1/ml [sic]
Procedure: (§1) The inhibition of PAF-induced platelet aggregation was examined by using a platelet-rich plasma (PRP) of rabbit according to the method of Mustard et al. [J.F. Mustard et al., J. Lab. Clin. Med., 64, 548 (1964)], which is an improvement of the method of Born [G.V.R. Born, J. Physiol., London, 162, 67 (1962)]. That is, 80-100 ml of blood per animal was collected from carotid arteries of male rabbits of the Japanese white breed without anesthesia into a polyethylene vessel containing 1/10 the volume of a 3.8% sodium citrate solution. A portion (about 3 ml) of the collected blood was centrifuged at a high speed (11,000 rpm) for 60 seconds, giving a platelet-poor plasma (PPP) as supernatant. The remainder of the blood was centrifuged at a low speed (1000 rpm) for 10 minutes, giving a platelet-rich plasma (PRP) as supernatant.
(§2) The degree of platelet aggregation was determined by nephelometry with an aggregometer (Hematracer, Niko Bioscience Co.) while stirring the PRP at 1000 rpm at 37° C. The platelet aggregation activity was expressed in terms of the light transmittance (%), the value of PRP being taken as 0% and the value of PPP as 100%. A portion (0.2 ml) of the PRP was placed in a glass cuvette containing a silicone-treated stirring iron rod, and 2 µl of dimethylsulfoxide was added. AFter 2 minutes, PAF dissolved in 0.25% BSA physiological saline was added to give a final PAF concentration of 0.005 μ1/ml, and the maximum aggregation was determined. To examine the inhibitory activity of test compounds on the platelet aggregation caused by PAF, 2 µl of a dimethylsulfoxide solution of each test compound was added in place of the dimethylsulfoxide. The percentage inhibition by the test compound of PAF-induced platelet aggregation was calculated according to the following equation and the value of IC50 was determined. [formula]

[2] = tested on: PAF-induced human platelet aggregation; test: Inhibition of PAF-induced human platelet aggregation (in vitro, human PRP); format: cell-based
Procedure: as §1, §2
The inhibition of PAF-induced platelet aggregation was tested by using human PRP. The test was conducted according to the procedure of the above case of rabbit, thereby evaluating the percentages inhibition and IC50 values of test compounds at final PAF concentrations of 0.3 μM and 1 μM.

[3] = tested on: PAF-induced blood concentration; test: Test in vivo for inhibition of PAF-induced blood concentration; conditions: guinea pigs, PAF iv 2 min later
Procedure: Guinea pigs under anesthesia with urethane (6.25 mg/kg injected into the abdominal cavities) were cannulated through carotid arteries and jugular veins. The carotid artery cannulae were used for blood sampling and the jugular vein cannulae for the intravenous injection of test compound and PAF.
Compound No. 27 was suspended in 10% Nikkol® liquid to a concentration of 3 mg/ml, and 1 ml/kg of the resulting suspension was administered through the jugular vein cannulae. Two minutes later, 1 ml/kg of a 0.1 μg/m1 PAF solution was administered through the jugular vein cannulae. Then, blood was sampled at times. The blood samples were each centrifuged at 11,000 rpm for 5 minutes and the hematocrit values were measured to determine the maximum increase (blood concentration) in hematocrit value.
For a control, 0.5% methyl cellulose solution was administered in place of compound No. 27.
The percentage inhibition of the PAF-induced blood concentration by compound No. 27 was calculated according to the following equation: [formula] The found percentage inhibition was 87%.

| Compound | IC50 [1] | other results |
| --- | --- | --- |
| CCOC(=O)CN1C(=O)[C@@H](C)S[C@H]1c1cccnc1 (relative stereo) [Compound No. 9, 3-ethoxycarbonylmethyl-5-methyl-2(3-pyridyl)thiazolidin-4-one] | 1.6 mg/L (≈ 5.71 µM) |  |
| CCCCCC1SC(c2cccnc2)N(C)C1=O (centres unmarked) [compound 46] | 1.9 mg/L (≈ 7.19 µM) |  |
| CCCCCCC1SC(c2cccnc2)N(C)C1=O (centres unmarked) [compound 47] | 1.4 mg/L (≈ 5.03 µM) |  |
| CCC[C@H]1S[C@H](c2cccnc2)N(CCN(C)C)C1=O (relative stereo) [compound 67] | 0.45 mg/L (≈ 1.53 µM) |  |
| C[C@H]1S[C@@H](c2cccnc2)N(C)C1=O (single isomer, unassigned) [compound 178, (+)-cis-3,5-dimethyl-2-(3-pyridyl)-thiazolidin-4-one] | 1.5 mg/L (≈ 7.2 µM) |  |
| CCCCCCCCCCC1SC(c2cccnc2)N(C)C1=O (centres unmarked) [compound 51] | 1.4 mg/L (≈ 4.18 µM) |  |
| CN(C)CCN1C(=O)[C@@H](CCCO[Si](C)(C)C(C)(C)C)S[C@@H]1c1cccnc1 (relative stereo) [compound 169] | 0.026 mg/L (≈ 0.0614 µM) |  |
| CCCCCCCCC[C@H]1S[C@@H](c2cccnc2)N(C)C1=O (relative stereo) [compound 50] | 4.6 mg/L (≈ 14.4 µM) |  |
| C[C@H]1S[C@H](c2cccnc2)N(CC(=O)OC(C)(C)C)C1=O (relative stereo) [Compound No. 15, 3-t-butyloxycarbonylmethyl-5-methyl-2-(3-pyridyl)thiazolidin-4-one] | 2.6 mg/L (≈ 8.43 µM) |  |
| CCCCCCCCC[C@H]1S[C@@H](c2cccnc2)N(CCCN(C)C)C1=O (relative stereo) [compound 108] | 0.7 mg/L (≈ 1.79 µM) | IC50 ([2]; PAF concentration 0.3 μM): 1.8 mg/L (≈ 4.6 µM); IC50 ([2]; PAF concentration 1 μM): 6 mg/L (≈ 15.3 µM) |
| CCCCCCCCC[C@H]1S[C@H](c2cccnc2)N(C)C1=O (relative stereo) [compound 49] | 2.4 mg/L (≈ 7.49 µM) |  |
| CCCCC1SC(c2cccnc2)N(C)C1=O (centres unmarked) [compound 7, 5-butyl-3-methyl-2-(3-pyridyl)-thiazolidin-4-one] | 2 mg/L (≈ 7.99 µM) |  |
| CCCC[C@H]1S[C@H](c2cccnc2)N(CCN(C)C)C1=O (relative stereo) [compound 69] | 0.24 mg/L (≈ 0.781 µM) |  |
| CN(C)CCN1C(=O)[C@@H](CCCO[Si](C)(C)C(C)(C)C)S[C@H]1c1cccnc1 (relative stereo) [compound 170] | 0.052 mg/L (≈ 0.123 µM) |  |
| CCCCC[C@H]1S[C@H](c2cccnc2)N(CCN(C)C)C1=O (relative stereo) [compound 71] | 0.32 mg/L (≈ 0.995 µM) |  |
| C[C@H]1S[C@@H](c2cccnc2)N(C)C1=O (relative stereo) [Compound No. 2, 3,5-Dimethyl-2-(3-pyridyl)thiazolidin-4-one] | 4 mg/L (≈ 19.2 µM) | IC50 ([2]; PAF concentration 0.3 μM): 5.5 mg/L (≈ 26.4 µM); Percentage inhibition of PAF-induced blood concentration (maximum increase in hematocrit value) ([3]; dose 3 mg/kg iv): 53% |

| Compound | IC50 [1] | other results |
| --- | --- | --- |
| CCC1SC(c2cccnc2)N(CCN(C)C)C1=O (centres unmarked) [compound 24, 5-ethyl-3-(2-dimethylaminoethyl)-2-(3-pyridyl)thiazolidin-4-one] | 2 mg/L (≈ 7.16 µM) |  |
| CCC1SC(c2cccnc2)N(C)C1=O (centres unmarked) [compound 42] | 2.5 mg/L (≈ 11.2 µM) |  |
| CCCCCC[C@H]1S[C@H](c2cccnc2)N(CCN(C)C)C1=O (relative stereo) [compound 73] | 0.07 mg/L (≈ 0.209 µM) |  |
| C#CCN1C(=O)[C@@H](C)S[C@@H]1c1cccnc1 (relative stereo) [compound 33] |  | IC50 ([2]; PAF concentration 0.3 μM): 5.5 mg/L (≈ 23.7 µM) |
| CCCC1SC(c2cccnc2)N(C)C1=O (centres unmarked) [compound 43] | 1.2 mg/L (≈ 5.08 µM) |  |
| COc1ccc(CCN2C(=O)[C@@H](C)S[C@@H]2c2cccnc2)cc1OC (relative stereo) [compound 37] | 0.7 mg/L (≈ 1.95 µM) |  |
| CN(C)CCN1C(=O)C(CCOCCO[Si](C)(C)C(C)(C)C)SC1c1cccnc1 (centres unmarked) [compound 165] | 0.3 mg/L (≈ 0.661 µM) |  |
| C[C@H]1S[C@H](c2cccnc2)N(C)C1=O (relative stereo) [compound 3, 3,5-Dimethyl-2-(3-pyridyl)thiazolidin-4-one] | 3.5 mg/L (≈ 16.8 µM) | IC50 ([2]; PAF concentration 0.3 μM): 6 mg/L (≈ 28.8 µM); Percentage inhibition of PAF-induced blood concentration (maximum increase in hematocrit value) ([3]; dose 30 mg/kg iv): 58% |
| CC(=O)SCCN1C(=O)[C@@H](C)S[C@H]1c1cccnc1 (relative stereo) [Compound No. 18, 3-(2-Acetylthioethyl)-5-methyl-2(3-pyridyl)thiazolidin-4-one] | 3 mg/L (≈ 10.1 µM) |  |
| CN(C)CCN1C(=O)C(C)(C)SC1c1cccnc1 (centres unmarked) [compound 25, 5,5-dimethyl-3-(2-dimethylaminoethyl)2-(3-pyridyl)thiazolidin-4-one] | 10 mg/L (≈ 35.8 µM) |  |
| CCN1C(=O)C(C)SC1c1cccnc1 (centres unmarked) [compound 30] | 4.2 mg/L (≈ 18.9 µM) |  |
| CCCCCCCCC[C@H]1S[C@H](c2cccnc2)N(CCN(C)C)C1=O (relative stereo) [Compound No. 27, 3-(2-dimethylaminoethyl)-5-(n-nonyl)-2-(3-pyridyl)thiazolidin-4-one] | 0.02 mg/L (≈ 0.053 µM) | IC50 ([2]; PAF concentration 0.3 μM): 0.2 mg/L (≈ 0.53 µM); IC50 ([2]; PAF concentration 1 μM): 0.4 mg/L (≈ 1.06 µM); Percentage inhibition of PAF-induced blood concentration (maximum increase in hematocrit value) ([3]; dose 3 mg/kg iv): 87% |
| CN1C(=O)C(C)(C)SC1c1cccnc1 (centres unmarked) [compound 8, 5,5,3-trimethyl-2-(3-pyridyl)-thiazolidin-4-one] | 3.6 mg/L (≈ 16.2 µM) |  |
| CCCCCCCCC[C@H]1S[C@@H](c2cccnc2)N(CCN(C)C)C1=O (relative stereo) [compound 28, 3-(2-Dimethylaminoethyl)-5-(n-nonyl)-2-(3-pyridyl)thiazolidin-4-one] | 0.2 mg/L (≈ 0.53 µM) | IC50 ([2]; PAF concentration 0.3 μM): 1.2 mg/L (≈ 3.18 µM); IC50 ([2]; PAF concentration 1 μM): 2.5 mg/L (≈ 6.62 µM); Percentage inhibition of PAF-induced blood concentration (maximum increase in hematocrit value) ([3]; dose 30 mg/kg iv): 92% |
| CCCCCCC[C@H]1S[C@H](c2cccnc2)N(CCN(C)C)C1=O (relative stereo) [compound 75] | 0.06 mg/L (≈ 0.172 µM) |  |

Second part, led by results:

| IC50 [1] | Compound | other results |
| --- | --- | --- |
| 0.16 mg/L (≈ 0.404 µM) | CC(C)COCCOCC[C@H]1S[C@H](c2cccnc2)N(CCN(C)C)C1=O (relative stereo) [compound 150] |  |
| 0.034 mg/L (≈ 0.0935 µM) | CCCCCCCC[C@H]1S[C@H](c2cccnc2)N(CCN(C)C)C1=O (relative stereo) [compound 77] |  |
| 0.18 mg/L (≈ 0.512 µM) | CCCCOCC[C@H]1S[C@H](c2cccnc2)N(CCN(C)C)C1=O (relative stereo) [compound 133] |  |
| 2.4 mg/L (≈ 7.11 µM) | CC(C)OCCC1SC(c2cccnc2)N(CCN(C)C)C1=O (centres unmarked) [compound 154] |  |
| 0.27 mg/L (≈ 0.643 µM) | CCCCCCCCCCCC[C@H]1S[C@H](c2cccnc2)N(CCN(C)C)C1=O (relative stereo) [compound 83] |  |
| 0.19 mg/L (≈ 0.563 µM) | CCOCCCC1SC(c2cccnc2)N(CCN(C)C)C1=O (centres unmarked) [compound 137] |  |
| 0.1 mg/L (≈ 0.247 µM) | CCCCCCCCCCC[C@H]1S[C@H](c2cccnc2)N(CCN(C)C)C1=O (relative stereo) [compound 81] |  |
| 4.2 mg/L (≈ 12.6 µM) | CN(C)CCN1C(=O)C(CC(F)(F)F)SC1c1cccnc1 (centres unmarked) [compound 171] |  |
| 4.2 mg/L (≈ 8.08 µM) | CN(C)CCN1C(=O)C(CCOCc2ccccc2)(CCOCc2ccccc2)SC1c1cccnc1 (centres unmarked) [compound 130] |  |
| 0.14 mg/L (≈ 0.385 µM) | CCCCCCCC[C@H]1S[C@@H](c2cccnc2)N(CCN(C)C)C1=O (relative stereo) [compound 78] |  |
| 0.05 mg/L (≈ 0.128 µM) | CCCCCCCCCC[C@H]1S[C@H](c2cccnc2)N(CCN(C)C)C1=O (relative stereo) [compound 79] |  |
| 0.6 mg/L (≈ 1.48 µM) | CCCCCCCCCCC[C@H]1S[C@@H](c2cccnc2)N(CCN(C)C)C1=O (relative stereo) [compound 82] |  |
| 5 mg/L (≈ 24 µM) | C[C@@H]1S[C@@H](c2cccnc2)N(C)C1=O (single isomer, unassigned) [compound 181, (+)-trans-3,5-dimethyl-2-(3-pyridyl)-thiazolidin-4-one] |  |
| 1.7 mg/L (≈ 6.41 µM) | C[C@H]1S[C@H](c2cccnc2)N(CCN(C)C)C1=O (relative stereo) [compound 127] |  |
| 0.2 mg/L (≈ 0.572 µM) | CCCCCCC[C@H]1S[C@@H](c2cccnc2)N(CCN(C)C)C1=O (relative stereo) [compound 76] |  |
| 0.35 mg/L (≈ 0.894 µM) | CCCCCCCCCC[C@H]1S[C@@H](c2cccnc2)N(CCN(C)C)C1=O (relative stereo) [compound 80] |  |
| 0.14 mg/L (≈ 0.363 µM) | CN(C)CCN1C(=O)[C@@H](CCOCc2ccccc2)S[C@@H]1c1cccnc1 (relative stereo) [compound 131] |  |
| 4.2 mg/L (≈ 15.8 µM) | C[C@H]1S[C@@H](c2cccnc2)N(CCN(C)C)C1=O (relative stereo) [compound 128] |  |
| 0.15 mg/L (≈ 0.379 µM) | CCCCOCCOCC[C@H]1S[C@H](c2cccnc2)N(CCN(C)C)C1=O (relative stereo) [compound 135] |  |
